Test results taken from ChEMBL document CHEMBL3124912, “Combination of amino acid/dipeptide with nitric oxide donating oleanolic acid derivatives as PepT1 targeting antitumor prodrugs” (J Med Chem, 2014).
Values after ≈ are worked out from the molar mass of the structure shown. One block for each molecule: values may come before it. Active and inactive are the calls of the source. No cut-off for these calls is given here.

Experiments:
PepT1 [1] = assay: Effective permeability in Sprague-Dawley rat single-pass intestinal perfusion model assessed as PepT1-mediated drug transport at 0.1 mM administered in MES buffer at pH 6 via PVC tubing after 20 to 120 mins by HPLC analysis in presence of Gly-Sar; type: ADME, organism-based; settings: other: intestinal perfusion via PVC tubing, pH 6, with Gly-Sar (concentration not stated), read-out: Peff
[2] = Aqueous equilibrium solubility of the compound after 24 hrs by HPLC analysis; type: physicochemical; settings: water (aqueous)
HepG2 = assay: Cytotoxicity against human HepG2 cells after 48 hrs by CCK-8 assay; type: functional, cell-based; settings: HepG2, 48 h
PepT1 [3] = assay: Effective permeability in Sprague-Dawley rat single-pass intestinal perfusion model assessed as PepT1-mediated drug transport at 0.1 mM administered in HEPES buffer at pH 7.4 via PVC tubing after 20 to 120 mins by HPLC analysis; type: ADME, organism-based; settings: other: intestinal perfusion via PVC tubing, read-out: Peff
MCF7 = assay: Cytotoxicity against human MCF7 cells after 48 hrs by CCK-8 assay; type: functional, cell-based; settings: MCF7, 48 h
[4] = Cytotoxicity against human LO2 cells at 0.02 to 10 uM after 48 hrs by CCK-8 assay; type: cell-based; settings: l02, 48 h
[5] = Induction of nitric oxide release in PBS at 100 uM at pH 7.4 after 24 hrs by Griess method in presence of rat serum; settings: pH 7.4, 24 h
A549 [6] = assay: Ratio of cisplatin IC50 to compound IC50 for human A549 cells; type: functional
A549 [7] = assay: Cytotoxicity against human A549 cells after 48 hrs by CCK-8 assay; type: functional, cell-based; settings: A549, 48 h
[8] = Chemical stability in HEPES buffer assessed as compound remaining at 37 degC up to 2 hrs by HPLC analysis; type: physicochemical; settings: read-out: Stability
L02 = assay: Induction of human LO2 cell growth at 0.02 to 10 uM after 48 hrs by CCK-8 assay; type: functional, cell-based
[9] = Induction of nitric oxide release in PBS at 100 uM at pH 7.4 after 24 hrs by Griess method; settings: buffer, pH 7.4, 24 h
[10] = Chemical stability in MES buffer assessed as compound remaining at 37 degC up to 2 hrs by HPLC analysis; type: physicochemical; settings: read-out: Stability
HCT-116 = assay: Cytotoxicity against human HCT116 cells after 48 hrs by CCK-8 assay; type: functional, cell-based; settings: HCT-116, 48 h
PepT1 [11] = assay: Effective permeability in Sprague-Dawley rat single-pass intestinal perfusion model assessed as PepT1-mediated drug transport at 0.1 mM administered in MES buffer at pH 6 via PVC tubing after 20 to 120 mins by HPLC analysis; type: ADME, organism-based; settings: other: intestinal perfusion via PVC tubing, read-out: Peff
[12] = Cytotoxicity against human LO2 cells assessed as cell survival at 50 uM after 48 hrs by CCK-8 assay relative to control; type: cell-based, L02; settings: read-out: Survival

SMILES: CC(C)[C@H](N)C(=O)N[C@H](C(=O)OCCOC(=O)[C@]12CCC(C)(C)C[C@H]1C1=CC[C@@H]3[C@@]4(C)CC[C@H](OC(=O)CO[N+](=O)[O-])C(C)(C)[C@@H]4CC[C@@]3(C)[C@]1(C)CC2)C(C)C.Cl
Papp at 100 µM (PepT1 [1]): 16.3 ×10⁻⁶ cm/s
solubility thermodynamic at 24 h [2]: 22.3 µg/mL
IC50 (HepG2): 2.8 µM
Papp at 100 µM (PepT1 [3]): 23.4 ×10⁻⁶ cm/s
IC50 (MCF7): 15 µM
Activity [4]: Non-toxic
Activity [5]: Active
Ratio IC50 (A549 [6]): 7
IC50 (A549 [7]): 2.4 µM
remaining at 2 h [8]: 98.2%
Activity (L02): Active
Activity [9]: 9.9%
remaining at 2 h [10]: 100%
IC50 (HCT-116): 15.5 µM
Papp at 100 µM (PepT1 [11]): 46 ×10⁻⁶ cm/s
viability at 48 h, 50 µM [12]: 60%

solubility thermodynamic at 24 h [2]: 25.2 µg/mL
Papp at 100 µM (PepT1 [3]): 41.5 ×10⁻⁶ cm/s
SMILES: CC(C)[C@H](N)C(=O)OCCOC(=O)[C@]12CCC(C)(C)C[C@H]1C1=CC[C@@H]3[C@@]4(C)CC[C@H](O)C(C)(C)[C@@H]4CC[C@@]3(C)[C@]1(C)CC2.Cl
IC50 (HepG2): 96.7 µM
IC50 (MCF7): > 150 µM
IC50 (A549 [7]): 68.1 µM
IC50 (HCT-116): > 150 µM

SMILES: CC[C@H](C)[C@H](N)C(=O)OCCOC(=O)[C@]12CCC(C)(C)C[C@H]1C1=CC[C@@H]3[C@@]4(C)CC[C@H](OC(=O)CO[N+](=O)[O-])C(C)(C)[C@@H]4CC[C@@]3(C)[C@]1(C)CC2
IC50 (HepG2): 16.3 µM
IC50 (MCF7): 74 µM
IC50 (A549 [7]): 17.7 µM
IC50 (HCT-116): > 150 µM

SMILES: C[C@H](N)C(=O)OCCOC(=O)[C@]12CCC(C)(C)C[C@H]1C1=CC[C@@H]3[C@@]4(C)CC[C@H](OC(=O)CO[N+](=O)[O-])C(C)(C)[C@@H]4CC[C@@]3(C)[C@]1(C)CC2
IC50 (HepG2): 23.2 µM
IC50 (MCF7): 48 µM
IC50 (A549 [7]): 28.1 µM
IC50 (HCT-116): 32.8 µM

SMILES: CC(COC(=O)[C@]12CCC(C)(C)C[C@H]1C1=CC[C@@H]3[C@@]4(C)CC[C@H](O)C(C)(C)[C@@H]4CC[C@@]3(C)[C@]1(C)CC2)OC(=O)[C@@H](NC(=O)[C@@H](N)C(C)C)C(C)C (stereo partly drawn)
IC50 (HepG2): 73.1 µM
IC50 (MCF7): > 150 µM
IC50 (A549 [7]): 64.3 µM
IC50 (HCT-116): 133 µM

SMILES: CC(C)[C@H](N)C(=O)OCCOC(=O)[C@]12CCC(C)(C)C[C@H]1C1=CC[C@@H]3[C@@]4(C)CC[C@H](OC(=O)CO[N+](=O)[O-])C(C)(C)[C@@H]4CC[C@@]3(C)[C@]1(C)CC2.Cl
Papp at 100 µM (PepT1 [1]): 25.3 ×10⁻⁶ cm/s
solubility thermodynamic at 24 h [2]: 18.6 µg/mL
IC50 (HepG2): 10.7 µM
Papp at 100 µM (PepT1 [3]): 20.3 ×10⁻⁶ cm/s
IC50 (MCF7): 25.5 µM
Activity [4]: Non-toxic
Activity [5]: Active
Ratio IC50 (A549 [6]): 2
IC50 (A549 [7]): 7.5 µM
remaining at 2 h [8]: 98.5%
Activity (L02): Active
Activity [9]: 6.7%
remaining at 2 h [10]: 100%
IC50 (HCT-116): 24.9 µM
Papp at 100 µM (PepT1 [11]): 33.2 ×10⁻⁶ cm/s
viability at 48 h, 50 µM [12]: 60%

solubility thermodynamic at 24 h [2]: 0.012 µg/mL (≈ 0.0263 µM)
Papp at 100 µM (PepT1 [3]): 31.7 ×10⁻⁶ cm/s
Papp at 100 µM (PepT1 [11]): 31.6 ×10⁻⁶ cm/s
SMILES: CC1(C)CC[C@]2(C(=O)O)CC[C@]3(C)C(=CC[C@@H]4[C@@]5(C)CC[C@H](O)C(C)(C)[C@@H]5CC[C@]43C)[C@@H]2C1 [OLEANOLIC_ACID]
IC50 (HepG2): 51.4 µM
IC50 (MCF7): > 150 µM
Activity [4]: Non-toxic
IC50 (A549 [7]): 81.4 µM
Activity (L02): Active
IC50 (HCT-116): > 150 µM

SMILES: CC(C)[C@H](NC(=O)[C@H](C)N)C(=O)OCCOC(=O)[C@]12CCC(C)(C)C[C@H]1C1=CC[C@@H]3[C@@]4(C)CC[C@H](OC(=O)CO[N+](=O)[O-])C(C)(C)[C@@H]4CC[C@@]3(C)[C@]1(C)CC2
IC50 (HepG2): 22.1 µM
IC50 (MCF7): 83.2 µM
IC50 (A549 [7]): 9.6 µM
IC50 (HCT-116): 24.7 µM
